{"source": "PubChem BioAssay AID2060510", "about": "(Molecular Pharmacology Branch, DTP, NCI, 2025);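 also: spheroids exposed to the agents for 7 days before readout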;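 as to viability, T/C: percent of luminescence signal in DMSO vehicle wells taken as 100% viability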", "system": "439559-082-T-J2-PDC spheroids viability", "assay": "Anticancer human tumor 439559-082-T-J2-PDC patient-derived colon adenocarcinoma cell line growth inhibition [GQUAD]", "conditions": "for IC50: curve of first compound; for viability, T/C: stronger effect = lower value", "outline": "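Multi-cell-type spheroids of tumor cells with HUVEC and mesenchymal stem cells, treated with drug combinations. Concentrations descend in half-log steps from near clinical Cmax, or from 10 microM where Cmax is unknown; viability read-out.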", "key": {"[1]": {"conditions": "second compound 0.0316 µM, first compound 0.0316 µM"}, "[2]": {"conditions": "second compound 0.0316 µM, first compound 0.1 µM"}, "[3]": {"conditions": "second compound 0.0316 µM, first compound 0.316 µM"}, "[4]": {"conditions": "second compound 0.0316 µM, first compound 1 µM"}, "[5]": {"conditions": "second compound 0.0316 µM, first compound 3.16 µM"}, "[6]": {"conditions": "second compound 0.0316 µM, first compound 10 µM"}, "[7]": {"conditions": "second compound 0.1 µM, first compound 0.0316 µM"}, "[8]": {"conditions": "second compound 0.1 µM, first compound 0.1 µM"}, "[9]": {"conditions": "second compound 0.1 µM, first compound 0.316 µM"}, "[10]": {"conditions": "second compound 0.1 µM, first compound 1 µM"}, "[11]": {"conditions": "second compound 0.1 µM, first compound 3.16 µM"}, "[12]": {"conditions": "second compound 0.1 µM, first compound 10 µM"}, "[13]": {"conditions": "second compound 0.316 µM, first compound 0.0316 µM"}, "[14]": {"conditions": "second compound 0.316 µM, first compound 0.1 µM"}, "[15]": {"conditions": "second compound 0.316 µM, first compound 0.316 µM"}, "[16]": {"conditions": "second compound 0.316 µM, first compound 1 µM"}, "[17]": {"conditions": "second compound 0.316 µM, first compound 3.16 µM"}, "[18]": {"conditions": "second compound 0.316 µM, first compound 10 µM"}, "[19]": {"conditions": "second compound 1 µM, first compound 0.0316 µM"}, "[20]": {"conditions": "second compound 1 µM, first compound 0.1 µM"}, "[21]": {"conditions": "second compound 1 µM, first compound 0.316 µM"}, "[22]": {"conditions": "second compound 1 µM, first compound 1 µM"}, "[23]": {"conditions": "second compound 1 µM, first compound 3.16 µM"}, "[24]": {"conditions": "second compound 1 µM, first compound 10 µM"}, "[25]": {"conditions": "second compound 3.16 µM, first compound 0.0316 µM"}, "[26]": {"conditions": "second compound 3.16 µM, first compound 0.1 µM"}, "[27]": {"conditions": "second compound 3.16 µM, first compound 0.316 µM"}, "[28]": {"conditions": "second compound 3.16 µM, first compound 1 µM"}, "[29]": {"conditions": "second compound 3.16 µM, first compound 3.16 µM"}, "[30]": {"conditions": "second compound 3.16 µM, first compound 10 µM"}, "[31]": {"conditions": "second compound 10 µM, first compound 0.0316 µM"}, "[32]": {"conditions": "second compound 10 µM, first compound 0.1 µM"}, "[33]": {"conditions": "second compound 10 µM, first compound 0.316 µM"}, "[34]": {"conditions": "second compound 10 µM, first compound 1 µM"}, "[35]": {"conditions": "second compound 10 µM, first compound 3.16 µM"}, "[36]": {"conditions": "second compound 10 µM, first compound 10 µM"}}}
{"smiles": "C=CCn1c(=O)c2cnc(Nc3ccc(N4CCN(C)CC4)cc3)nc2n1-c1cccc(C(C)(C)O)n1", "note": "+ Cc1cnc(CNC(=O)c2c(=O)c3ccc(N4CCCN(C)CC4)nc3n3c2sc2ccccc23)cn1", "values": [{"measurement": "IC50", "setting": "second compound 0.0316 µM", "result": 2610, "unit": "nM"}, {"measurement": "IC50", "setting": "second compound 0.1 µM", "result": 2530, "unit": "nM"}, {"measurement": "IC50", "setting": "second compound 0.316 µM", "result": 1740, "unit": "nM"}, {"measurement": "IC50", "setting": "second compound 1 µM", "result": 1400, "unit": "nM"}, {"measurement": "IC50", "setting": "second compound 3.16 µM", "result": 1280, "unit": "nM"}, {"measurement": "IC50", "setting": "second compound 10 µM", "result": 1080, "unit": "nM"}, {"measurement": "viability, T/C", "setting": "[1]", "result": 95.4, "unit": "%"}, {"measurement": "viability, T/C", "setting": "[2]", "result": 93.7, "unit": "%"}, {"measurement": "viability, T/C", "setting": "[3]", "result": 88.8, "unit": "%"}, {"measurement": "viability, T/C", "setting": "[4]", "result": 83.7, "unit": "%"}, {"measurement": "viability, T/C", "setting": "[5]", "result": 43.2, "unit": "%"}, {"measurement": "viability, T/C", "setting": "[6]", "result": 25.4, "unit": "%"}, {"measurement": "viability, T/C", "setting": "[7]", "result": 104, "unit": "%"}, {"measurement": "viability, T/C", "setting": "[8]", "result": 83.6, "unit": "%"}, {"measurement": "viability, T/C", "setting": "[9]", "result": 91.4, "unit": "%"}, {"measurement": "viability, T/C", "setting": "[10]", "result": 76, "unit": "%"}, {"measurement": "viability, T/C", "setting": "[11]", "result": 43.1, "unit": "%"}, {"measurement": "viability, T/C", "setting": "[12]", "result": 22.2, "unit": "%"}, {"measurement": "viability, T/C", "setting": "[13]", "result": 84.6, "unit": "%"}, {"measurement": "viability, T/C", "setting": "[14]", "result": 87.5, "unit": "%"}, {"measurement": "viability, T/C", "setting": "[15]", "result": 73.5, "unit": "%"}, {"measurement": "viability, T/C", "setting": "[16]", "result": 66.3, "unit": "%"}, {"measurement": "viability, T/C", "setting": "[17]", "result": 33.8, "unit": "%"}, {"measurement": "viability, T/C", "setting": "[18]", "result": 24, "unit": "%"}, {"measurement": "viability, T/C", "setting": "[19]", "result": 83.2, "unit": "%"}, {"measurement": "viability, T/C", "setting": "[20]", "result": 87.9, "unit": "%"}, {"measurement": "viability, T/C", "setting": "[21]", "result": 72.1, "unit": "%"}, {"measurement": "viability, T/C", "setting": "[22]", "result": 61.8, "unit": "%"}, {"measurement": "viability, T/C", "setting": "[23]", "result": 27.3, "unit": "%"}, {"measurement": "viability, T/C", "setting": "[24]", "result": 20.2, "unit": "%"}, {"measurement": "viability, T/C", "setting": "[25]", "result": 73.3, "unit": "%"}, {"measurement": "viability, T/C", "setting": "[26]", "result": 63.6, "unit": "%"}, {"measurement": "viability, T/C", "setting": "[27]", "result": 68.3, "unit": "%"}, {"measurement": "viability, T/C", "setting": "[28]", "result": 56.8, "unit": "%"}, {"measurement": "viability, T/C", "setting": "[29]", "result": 25.1, "unit": "%"}, {"measurement": "viability, T/C", "setting": "[30]", "result": 18.5, "unit": "%"}, {"measurement": "viability, T/C", "setting": "[31]", "result": 66.2, "unit": "%"}, {"measurement": "viability, T/C", "setting": "[32]", "result": 53.9, "unit": "%"}, {"measurement": "viability, T/C", "setting": "[33]", "result": 61.2, "unit": "%"}, {"measurement": "viability, T/C", "setting": "[34]", "result": 51.1, "unit": "%"}, {"measurement": "viability, T/C", "setting": "[35]", "result": 31.2, "unit": "%"}, {"measurement": "viability, T/C", "setting": "[36]", "result": 13.8, "unit": "%"}]}
{"smiles": "COc1ncnc(C2CC2)c1-c1ncc2cnn(Cc3ccc(-c4nc(C(F)(F)F)cn4C(C)C)cc3)c2n1", "note": "+ Cc1cnc(CNC(=O)c2c(=O)c3ccc(N4CCCN(C)CC4)nc3n3c2sc2ccccc23)cn1", "values": [{"measurement": "IC50", "setting": "second compound 0.0316 µM", "result": "> 10000", "unit": "nM"}, {"measurement": "IC50", "setting": "second compound 0.1 µM", "result": "> 10000", "unit": "nM"}, {"measurement": "IC50", "setting": "second compound 0.316 µM", "result": "> 10000", "unit": "nM"}, {"measurement": "IC50", "setting": "second compound 1 µM", "result": "> 10000", "unit": "nM"}, {"measurement": "IC50", "setting": "second compound 3.16 µM", "result": "> 10000", "unit": "nM"}, {"measurement": "IC50", "setting": "second compound 10 µM", "result": "> 10000", "unit": "nM"}, {"measurement": "viability, T/C", "setting": "[1]", "result": 106, "unit": "%"}, {"measurement": "viability, T/C", "setting": "[2]", "result": 92, "unit": "%"}, {"measurement": "viability, T/C", "setting": "[3]", "result": 93.4, "unit": "%"}, {"measurement": "viability, T/C", "setting": "[4]", "result": 105, "unit": "%"}, {"measurement": "viability, T/C", "setting": "[5]", "result": 95.5, "unit": "%"}, {"measurement": "viability, T/C", "setting": "[6]", "result": 97.5, "unit": "%"}, {"measurement": "viability, T/C", "setting": "[7]", "result": 103, "unit": "%"}, {"measurement": "viability, T/C", "setting": "[8]", "result": 101, "unit": "%"}, {"measurement": "viability, T/C", "setting": "[9]", "result": 87.4, "unit": "%"}, {"measurement": "viability, T/C", "setting": "[10]", "result": 95.4, "unit": "%"}, {"measurement": "viability, T/C", "setting": "[11]", "result": 97.6, "unit": "%"}, {"measurement": "viability, T/C", "setting": "[12]", "result": 96.5, "unit": "%"}, {"measurement": "viability, T/C", "setting": "[13]", "result": 86.5, "unit": "%"}, {"measurement": "viability, T/C", "setting": "[14]", "result": 85.1, "unit": "%"}, {"measurement": "viability, T/C", "setting": "[15]", "result": 89.5, "unit": "%"}, {"measurement": "viability, T/C", "setting": "[16]", "result": 79.3, "unit": "%"}, {"measurement": "viability, T/C", "setting": "[17]", "result": 93.5, "unit": "%"}, {"measurement": "viability, T/C", "setting": "[18]", "result": 77.4, "unit": "%"}, {"measurement": "viability, T/C", "setting": "[19]", "result": 74.4, "unit": "%"}, {"measurement": "viability, T/C", "setting": "[20]", "result": 78, "unit": "%"}, {"measurement": "viability, T/C", "setting": "[21]", "result": 64.9, "unit": "%"}, {"measurement": "viability, T/C", "setting": "[22]", "result": 81.8, "unit": "%"}, {"measurement": "viability, T/C", "setting": "[23]", "result": 83.7, "unit": "%"}, {"measurement": "viability, T/C", "setting": "[24]", "result": 73, "unit": "%"}, {"measurement": "viability, T/C", "setting": "[25]", "result": 66.4, "unit": "%"}, {"measurement": "viability, T/C", "setting": "[26]", "result": 69.3, "unit": "%"}, {"measurement": "viability, T/C", "setting": "[27]", "result": 69.2, "unit": "%"}, {"measurement": "viability, T/C", "setting": "[28]", "result": 69.6, "unit": "%"}, {"measurement": "viability, T/C", "setting": "[29]", "result": 70, "unit": "%"}, {"measurement": "viability, T/C", "setting": "[30]", "result": 69, "unit": "%"}, {"measurement": "viability, T/C", "setting": "[31]", "result": 66.8, "unit": "%"}, {"measurement": "viability, T/C", "setting": "[32]", "result": 58, "unit": "%"}, {"measurement": "viability, T/C", "setting": "[33]", "result": 58.9, "unit": "%"}, {"measurement": "viability, T/C", "setting": "[34]", "result": 66.3, "unit": "%"}, {"measurement": "viability, T/C", "setting": "[35]", "result": 67, "unit": "%"}, {"measurement": "viability, T/C", "setting": "[36]", "result": 63.9, "unit": "%"}]}
